From PubChem BioAssay AID1259411 (Chemical Carcinogenesis Research Information System (CCRIS), 2018)
The source made the active and inactive calls. How the calls were made is not given here.

Tested on: rodent carcinogenicity bioassays, tumor incidence
Test: CCRIS carcinogenicity studies
Method in brief: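 NCI-built, expert-reviewed records of carcinogenicity and related test outcomes (mutagenicity, tumor promotion/inhibition) compiled from published and report sources, historical span 1985-2011, not updated.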

CN(C)C(=S)SSC(=S)N(C)C
carcinogen call (Species: DOG, Strain/Sex: BEAGLE/FEMALE, Route: ORAL, Dose: 0, 0.4, 4, 40 MG/KG/D ADMINISTERED IN GELATIN CAPSULES 7 D/WK FOR 104 WK (STUDY DURATION: 104 WK), Dose: 0, 0.4, 4, 40 MG/KG/D ADMINISTERED IN GELATIN CAPSULES 7 D/WK FOR 104 WK (STUDY DURATION: 104 WK)): inactive; negative | carcinogen call (Species: DOG, Strain/Sex: BEAGLE/MALE, Route: ORAL, Dose: 0, 0.4, 4, 40 MG/KG/D ADMINISTERED IN GELATIN CAPSULES 7 D/WK FOR 104 WK (STUDY DURATION: 104 WK), Dose: 0, 0.4, 4, 40 MG/KG/D ADMINISTERED IN GELATIN CAPSULES 7 D/WK FOR 104 WK (STUDY DURATION: 104 WK)): inactive; negative | carcinogen call (Species: MOUSE, Strain/Sex: SWISS/FEMALE, Route: DERMAL, Dose: 0, 100 MG/KG BW IN 100 µL DMSO 3/WK FOR 52 WK (STUDY DURATION: 52 WK)): inactive; negative | carcinogen call (Species: MOUSE, Strain/Sex: SWISS/MALE, Route: 0, 100 MG/KG BW IN 100 µL DMSO 3/WK FOR 52 WK (STUDY DURATION: 52 WK)): inactive; negative | carcinogen call (Species: RAT, Strain/Sex: F344/FEMALE, Route: ORAL, Dose: 0, 0.05, 0.1% IN DIET FOR 104 WK (STUDY DURATION: 112 WK), Dose: 0, 0.05, 0.1% IN DIET FOR 104 WK (STUDY DURATION: 112 WK)): inactive; negative | carcinogen call (Species: RAT, Strain/Sex: F344/MALE, Route: ORAL, Dose: 0, 0.05, 0.1% IN DIET FOR 104 WK (STUDY DURATION: 112 WK), Dose: 0, 0.05, 0.1% IN DIET FOR 104 WK (STUDY DURATION: 112 WK)): inactive; negative | carcinogen call (Species: RAT, Strain/Sex: WISTAR/FEMALE, Route: ORAL, Dose: 0, 3, 30, 300 PPM IN DIET FOR 104 WK (STUDY DURATION: 104 WK), Dose: 0, 3, 30, 300 PPM IN DIET FOR 104 WK (STUDY DURATION: 104 WK)): inactive; negative | carcinogen call (Species: RAT, Strain/Sex: WISTAR/MALE, Route: ORAL, Dose: 0, 3, 30, 300 PPM IN DIET FOR 104 WK (STUDY DURATION: 104 WK), Dose: 0, 3, 30, 300 PPM IN DIET FOR 104 WK (STUDY DURATION: 104 WK)): inactive; negative

Nc1ccccc1C(=O)O
carcinogen call (Species: MOUSE, Strain/Sex: B6C3F1/FEMALE, Route: ORAL, Dose: 0, 25000, 50000 PPM IN DIET, Dose: 0, 25000, 50000 PPM IN DIET): inactive; negative | carcinogen call (Species: MOUSE, Strain/Sex: B6C3F1/MALE, Route: ORAL, Dose: 0, 25000, 50000 PPM IN DIET, Dose: 0, 25000, 50000 PPM IN DIET): inactive; negative | carcinogen call (Species: RAT, Strain/Sex: F344/FEMALE, Route: ORAL, Dose: 0, 15000, 30000 PPM IN DIET, Dose: 0, 15000, 30000 PPM IN DIET): inactive; negative | carcinogen call (Species: RAT, Strain/Sex: F344/MALE, Route: ORAL, Dose: 0, 15000, 30000 PPM IN DIET, Dose: 0, 15000, 30000 PPM IN DIET): inactive; negative

N[C@@H](CC(=O)O)C(=O)O
carcinogen call (Species: RAT, Strain/Sex: F344/FEMALE, Route: ORAL, Dose: 0, 2.5, 5% IN DRINKING WATER FOR 100 WK (STUDY DURATION: 100 WK), Dose: 0, 2.5, 5% IN DRINKING WATER FOR 100 WK (STUDY DURATION: 100 WK)): inactive; negative | carcinogen call (Species: RAT, Strain/Sex: F344/MALE, Route: ORAL, Dose: 0, 2.5, 5% IN DRINKING WATER FOR 100 WK (STUDY DURATION: 100 WK), Dose: 0, 2.5, 5% IN DRINKING WATER FOR 100 WK (STUDY DURATION: 100 WK)): inactive; negative

CNC(=O)ON=C(SC)C(=O)N(C)C
carcinogen call (Species: MOUSE, Strain/Sex: CD-1/FEMALE, Route: ORAL, Dose: 0, 25, 50, 75 PPM IN DIET FOR 2 YR (STUDY DURATION: 2 YR), Dose: 0, 25, 50, 75 PPM IN DIET FOR 2 YR (STUDY DURATION: 2 YR)): inactive; negative | carcinogen call (Species: MOUSE, Strain/Sex: CD-1/MALE, Route: ORAL, Dose: 0, 25, 50, 75 PPM IN DIET FOR 2 YR (STUDY DURATION: 2 YR), Dose: 0, 25, 50, 75 PPM IN DIET FOR 2 YR (STUDY DURATION: 2 YR)): inactive; negative | carcinogen call (Species: RAT, Strain/Sex: CRL:CD/FEMALE, Route: ORAL, Dose: 0, 50, 100, 150 PPM IN DIET FOR 2 YR (STUDY DURATION: 2 YR), Dose: 0, 50, 100, 150 PPM IN DIET FOR 2 YR (STUDY DURATION: 2 YR)): inactive; negative | carcinogen call (Species: RAT, Strain/Sex: CRL:CD/MALE, Route: ORAL, Dose: 0, 50, 100, 150 PPM IN DIET FOR 2 YR (STUDY DURATION: 2 YR), Dose: 0, 50, 100, 150 PPM IN DIET FOR 2 YR (STUDY DURATION: 2 YR)): inactive; negative

CCC(=O)Oc1ccc(/C(CC)=C(\CC)c2ccc(OC(=O)CC)cc2)cc1
carcinogen call (Species: RAT, Route: SUBCUTANEOUS, Tumor Site: Type of Lesion: PITUITARY GLAND): active; positive

Cl/C=C\CCl
carcinogen call (Species: MOUSE, Strain/Sex: ICR/FEMALE, Route: SUBCUTANEOUS, Dose: 3.0 MG/INJ IN 0.05 ML TRIOCTANOIN 1/WK, Tumor Site: Type of Lesion: INJECTION SITE: FIBROSARCOMA): active; positive

CC(O)CN(C)N=O (stereo unspecified)
carcinogen call (Species: HAMSTER, Strain/Sex: SYRIAN/FEMALE, Route: GAVAGE, Dose: 0, 1 MG IN 0.2 ML WATER 1/WK FOR 21 WK FOR A TOTAL DOSE OF 21 MG (STUDY DURATION: 45 WK), Tumor Site: Type of Lesion: LIVER: HEMANGIOSARCOMA OR HEMANGIOMA, LUNG: ALVEOLAR/BRONCHIOLAR ADENOMA, NASAL MUCOSA: CARCINOMA, Tumor Site: Type of Lesion: LIVER: HEMANGIOSARCOMA OR HEMANGIOMA, LUNG: ALVEOLAR/BRONCHIOLAR ADENOMA, NASAL MUCOSA: CARCINOMA): active; positive | carcinogen call (Species: HAMSTER, Strain/Sex: SYRIAN/FEMALE, Route: GAVAGE, Dose: 0, 5 MG IN 0.2 ML WATER FOR 4 WK THEN 2 MG 1/WK FOR 14 WK FOR A TOTAL DOSE OF 48 MG (STUDY DURATION: 45 WK), Tumor Site: Type of Lesion: LIVER: HEMANGIOSARCOMA, HEPATOCELLULAR ADENOMA, CHOLANGIOCELLULAR CARCINOMA, CHOLANGIOCELLULAR ADENOMA, PANCREAS: DUCTAL): active; positive | carcinogen call (Species: RAT, Strain/Sex: F344/FEMALE, Route: GAVAGE, Dose: 0, 4, 10 MG/WK FOR A TOTAL DOSE OF 0.6, 0.4 MMOL (STUDY DURATION: 50 WK), Dose: 0, 4, 10 MG/WK FOR A TOTAL DOSE OF 0.6, 0.4 MMOL (STUDY DURATION: 50 WK), Tumor Site: Type of Lesion: ESOPHAGUS: TUMOR, KIDNEY: TUMOR, THYROID: TUMOR, LUNG: TUMOR, Tumor Site: Type of Lesion: ESOPHAGUS: TUMOR, KIDNEY: TUMOR, THYROID: TUMOR, LUNG: TUMOR): active; positive | carcinogen call (Species: RAT, Strain/Sex: F344/MALE, Route: GAVAGE, Dose: 0, 4 MG/WK FOR A TOTAL DOSE OF 0.6 MMOL (STUDY DURATION: 50 WK), Tumor Site: Type of Lesion: ESOPHAGUS: TUMOR, NASAL MUCOSA: TUMOR): active; positive | carcinogen call (Species: RAT, Strain/Sex: WISTAR/MALE, Route: INTRAPERITONEAL, Dose: 0, 4.4, 8.8, 17.6 MG/KG IN 0.9% SALINE 1/WK FOR 12 WK (STUDY DURATION: 26 WK), Dose: 0, 4.4, 8.8, 17.6 MG/KG IN 0.9% SALINE 1/WK FOR 12 WK (STUDY DURATION: 26 WK), Tumor Site: Type of Lesion: NASAL CAVITY: CARCINOMA, PAPILLOMA): active; positive

Cc1cc(C(C)(C)C)c(O)c(C(C)(C)C)c1
carcinogen call (Species: MOUSE, Strain/Sex: B6C3F1/FEMALE, Route: ORAL, Dose: 0, 3000, 6000 PPM IN DIET, Dose: 0, 3000, 6000 PPM IN DIET): inactive; negative | carcinogen call (Species: MOUSE, Strain/Sex: B6C3F1/MALE,FEMALE, Route: ORAL, Dose: 200, 1000, 5000 PPM IN DIET FOR 96 WK, Dose: 200, 1000, 5000 PPM IN DIET FOR 96 WK): inactive; negative | carcinogen call (Species: MOUSE, Strain/Sex: B6C3F1/MALE, Route: ORAL, Dose: 0, 3000, 6000 PPM IN DIET, Dose: 0, 3000, 6000 PPM IN DIET): inactive; negative | carcinogen call (Species: RAT, Strain/Sex: F344/FEMALE, Route: ORAL, Dose: 0, 3000, 6000 PPM IN DIET, Dose: 0, 3000, 6000 PPM IN DIET): inactive; negative | carcinogen call (Species: RAT, Strain/Sex: F344/MALE, Route: ORAL, Dose: 0, 3000, 6000 PPM IN DIET, Dose: 0, 3000, 6000 PPM IN DIET): inactive; negative

Clc1ccc(-c2cc(Cl)c(Cl)cc2Cl)cc1Cl
carcinogen call (Species: Rat, Strain/Sex: Harlan Sprague-Dawley/Female (80/Group), Route: Oral, Dose: 0, 100, 220, 460, 1000, 4600 ug/kg in corn oil, by gavage, 5 d/wk for 2 yr, Dose: 0, 100, 220, 460, 1000, 4600 ug/kg in corn oil, by gavage, 5 d/wk for 2 yr, Tumor Site: Type of Lesion: Liver: cholangiocarcinoma (0/52, 0/51, 0/52, 0/52, 3/52, 36/49, 29/49), hepatocellular adenoma (0/52, 1/51, 1/52, 4/52): active; positive
